# Experimental data: patent US10711000B2 (Fronthera U.S. Pharmaceuticals LLC, priority 2018, dated 2020)
# Columns and labels:
# [1] = Metabolic stability in liver microsomes; assay type: in vitro ADME; conditions: compound 1 μM; for metabolic stability (halftime in minutes), Dog: Beagle dog liver microsomes; for metabolic stability (halftime in minutes), Mouse: CD-1 mouse liver microsomes; for metabolic stability (halftime in minutes), Monkey: Cynomolgus monkey liver microsomes; for metabolic stability (halftime in minutes), Rat: SD rat liver microsomes
# Description: The metabolic stability was examined in human, rat, mouse, dog and cynomolgus monkey liver microsomes. Compound (1 μM) was mixed with diluted liver microsomes from each of the 5 species and a small aliquot was taken at 0, 5, 10, 20, 30 and 60 minutes for HPLC MS/MS analysis. Intrinsic clearance and half-life were calculated.
# [2] = Pharmacokinetics in cynomolgus monkeys; assay type: in vivo; conditions: male, cynomolgus monkey, plasma, po, P.O. (1 mg/kg)
# Excerpt: (§1) The pharmacokinetics and pharmacodynamics of test compounds after a single oral dose were investigated in SD rats, Beagle dog and Cynomolgus monkey. SD Rats (200-250 g) were purchased from Beijing Vital River Laboratory Animal Technology Co., Ltd. Male Beagle Dog, 6-9 kg, were purchased from Beijing Mashall. Male Cynomolgus monkeys, 3-5 kg, were purchased from Suzhou Xishan Zhongke Drugs Research and Development Co., Ltd. Following arrival, the animals were acclimated for 7 days in individual cages maintained at ambient temperature, 34 to 68% relative humidity, and 12-h light/dark cycles. Just prior to dose administration the rats were fasted overnight with free access to water. Animals were given 10 mL/kg of formulated compound in 0.5% methylcellulose (MC) by oral gavage, and the animals were fed four hours after dosing. The animals were manually restrained at the designated time points (pre-dose, 0.5, 1, 3, 6, 9, 12, and 24 h post-dose) to collect blood. Approximately 120 μL of blood was collected via orbital sinus into K2EDTA tubes. The blood samples were centrifuged at 5000 rpm for 10 min at 4° C. to obtain plasma samples.
# (§2) To determine the compound concentration in the plasma samples, a 10× calibration standard of compound were prepared by serial dilution in DMSO: 20000, 10000, 5000, 2000, 1000, 500, 200, 100, 50, 20, and 10 ng/mL. 3 μL of calibration standard solution was added into 27.0 μL of blank plasma in 1.5-mL microcentrifuge tubes to generate 1× calibration standards. The 30.0 μL of standards or study plasma was mixed with 200 μL of acetonitrile (containing 5 ng/mL verapamil for internal control) in a 1.5-mL microcentrifuge tube. After vertexing for 1 minute and centrifuging at 10000 rpm for 10 min, 180 μL of supernatant was transferred into a 96-well plate and the compound concentration in the plasma was quantitated using LC/MS/MS together with standards. Briefly, 1 μL of the solutions were injected for LC-MS/MS analysis using an Agilent Zorbax C18 column (50×2.1 mm, 3.5 μm) with mobile phase A [5 mM NH4Ac (0.1% FA)] and phase B [Methanol (0.1% FA)]. Mass spectrometer parameters optimization for compound was performed by infusing standard diluted at 1 μg/mL in water/methanol (1/1, v/v) directly in the ionization source at a flow of 10 μL/min. Quantitative data were acquired in multiple reaction monitoring (MRM) positive APCI mode.
# [3] = Metabolic stability in human hepatocytes; assay type: in vitro ADME; conditions: cryopreserved human hepatocytes 0.5 million/mL, compound 1 μM
# Description: The metabolic stability was examined in cryopreserved human hepatocytes. Compound (1 μM) was mixed with human hepatocytes at 0.5 million/mL, and a small aliquot was taken at 0, 15, 30, 60 and 90 minutes for LC/MS/MS analysis. Intrinsic clearance and half-time were calculated.
# [4] = Pharmacokinetics after a single oral dose in SD rats; assay type: in vivo; conditions: Sprague-Dawley, rat, plasma, single oral dose in 0.5% methylcellulose; for half-life: read-out: T½ (converted)
# Excerpt: as §1, §2
# [5] = Pharmacokinetics in beagle dogs; assay type: in vivo; conditions: male, dog, plasma, iv, I.V. (1 mg/kg)
# Autotaxin = molecular target: T1, Autotaxin (Rattus norvegicus, UniProt Q64610); assay: Pharmacodynamics: LPA 18:2 inhibition in plasma of SD rats after oral dose; conditions: single oral dose, LPA18:2 inhibition vs plasma concentration of compound, read-out: In vivo rat IC50 (LPA 18:2) (converted)
# T1 construct: from tissue; host or cells: SD rats in vivo; plasma sampled after a single oral dose
# Excerpt: as §1
# Autotaxin is a secreted phosphodiesterase that converts lysophosphatidylcholine (LPC) into lysophosphatidic acid (LPA), and LPA 18:2 formation was used to evaluate the efficacy of autotaxin inhibitors. Therefore, the LPA 18:2 formation in response to drug administration was analyzed in each time point to assess the pharmacodynamics of test compounds. To determine the LPA18:2 concentration in study plasma, a 10× calibration standard of LPA 18:2 were prepared by serial dilution in butyl alcohol: 20000, 10000, 5000, 2000, 1000, 500, 200, 100, 50, 20, and 10 ng/mL. 3 μL of calibration standard solution was added into 27.0 μL of blank plasma in 1.5-mL microcentrifuge tubes to generate 1× calibration standards. The 30.0 μL of standards or study plasma was added into 1.5-mL microcentrifuge tubes. 200 μL of butyl alcohol (containing 25.0 ng/mL LPA17:0 for internal control) was added into each 1.5-mL microcentrifuge tube containing study plasma or calibration standards. After vortexing for 1 minute and centrifuging at 10000 rpm for 10 min, 180 μL of supernatant was transferred into a 96-well plate and the LPA18:2 concentration in the plasma was quantitated using LC/MS/MS together with standards. Briefly, 8 μL of the solutions were injected for LC-MS/MS analysis using an ACQUITY UPLC BEH C18 column (2.1×50 mm, 1.7 μm) with mobile phase A [20 mM NH4OAC in water (0.1% FA)] and phase B [5 mM NH4OAC in water/0.2% FA in ACN=5:95]. Mass spectrometer parameters optimization for LPA18:2 were performed by infusing standard diluted at 1 μg/mL in butyl Alcohol directly in the ionization source, at a flow of 10 μL/min. Deprotonated molecular ion at m/z 433.2 ([M−H]−) for LPA18:2, and abundant product ion at m/z 152.8 for LPA18:2 were obtained. Quantitative data were acquired in multiple reaction monitoring (MRM) negative electrospray ionization mode
# The percentage of LPA18:2 inhibition was plotted against the corresponding concentration of compound and the IC50 was calculated through non-linear regression fitting.
SMILES,"metabolic stability (halftime in minutes), Dog [1] [min]","metabolic stability (halftime in minutes), Mouse [1] [min]","metabolic stability (halftime in minutes), Monkey [1] [min]","metabolic stability (halftime in minutes), Rat [1] [min]","metabolic stability (halftime in minutes), Human [1] [min]",AUC [2] [ng·h/mL],Cmax [2] [ng/mL],bioavailability [2] [%],half-life [2] [h],"metabolic stability (halftime in minutes), Human [3] [min]",AUC [4] [ng·h/mL],Cmax [4] [ng/mL],half-life [4] [h],AUC [5] [ng·h/mL],C0 [5] [ng/mL],clearance [5] [mL/min/kg],half-life [5] [h],IC50 (Autotaxin) [nM]
"CCn1nc2ncc(N3CC4(CN(C(=O)C5CCOCC5)C4)C3)cc2c1N(C)c1nc(-c2ccc(F)cc2)c(C#N)s1 [Compound 118, 2-((2-ethyl-5-(6-(tetrahydro-2H-pyran-4-carbonyl)-2,6-diazaspiro[3.3]heptan-2-yl)-2H-pyrazolo[3,4-b]pyridin-3-yl)(methyl)amino)-4-(4-fluorophenyl)thiazole-5-carbonitrile]",>145,58.5,21.3,>145,75.4,153 ± 10,28 ± 3,2.9 ± 0.19,2.63 ± 0.85,>216.8,2620 ± 1920,477 ± 250,3.85 ± 1.3,2190 ± 378,786 ± 62,7.68 ± 1.2,3.35 ± 0.6,12.5
"CCc1nn2cc(F)c(N3CCN(CC(=O)N4CC(O)C4)CC3)cc2c1N(C)c1nc(-c2ccc(F)cc2)c(C#N)s1 [Example 101, 2-[[2-ethyl-6-fluoro-5-[4-[2-(3-hydroxyazetidin-1-yl)-2-oxo-ethyl]piperazin-1-yl]pyrazolo[1,5-a]pyridin-3-yl]-methyl-amino]-4-(4-fluorophenyl)thiazole-5-carbonitrile]",71.9,14.0,9.8,96.6,24.5,1380 ± 904,239 ± 119,35.6 ± 22,2.49 ± 0.54,>216.8,2050 ± 884,268 ± 76,3.29 ± 0.25,10700 ± 1810,2290 ± 172,1.53 ± 0.27,5.06 ± 0.85,8.64
"CCc1nn2cc(F)c(N3CC4(CN(C(=O)[C@H]5CCOC5)C4)C3)cc2c1N(C)c1nc(-c2ccc(F)cc2)c(C#N)s1 [Example 102, 2-[[2-ethyl-6-fluoro-5-[2-[(3S)-tetrahydrofuran-3-carbonyl]-2,6-diazaspiro[3.3]heptan-6-yl]pyrazolo[1,5-a]pyridin-3-yl]-methyl-amino]-4-(4-fluorophenyl)thiazole-5-carbonitrile]",69.8,17.9,6.4,67.3,13.4,–,–,–,–,76.6,7520 ± 498,732 ± 95,5.53 ± 0.2,6480 ± 703,1070 ± 34.4,1.85 ± 0.28,14.8 ± 0.57,8.85
CCc1nc2c(C)cc(N3CCN(CC(=O)N4CC(O)C4)CC3)cn2c1N(C)c1nc(-c2ccc(F)cc2)c(C#N)s1 [GLPG1690],32.1,10.3,4.8,9.2,10.8,244 ± 118,72.6 ± 38,4.51 ± 2.1,1.82 ± 0.63,117.9,1260 ± 209,889 ± 173,3.15 ± 1.8,8650 ± 328,5120 ± 1380,1.91 ± 0.07,2.11 ± 1.23,48.3
